“And” between values parts separate entries of the source, which are not always exact repeats. Equal entries are not always repeated. The source made the active and inactive calls.
Tests used:
Cytochrome P450 3A4 = Cytochrome P450 3A4 (Homo sapiens, UniProt P08684);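 also: CYP3A4 tested as one member of a cytochrome P450 panel screen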
Cytochrome P450 2D6 = Cytochrome P450 2D6 (Homo sapiens, UniProt P10635);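 also: CYP2D6 member of a cytochrome P450 panel assay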
[1] = tested on: Streptococcus sp. 'group A'; experiment: Streptococcus pyogenes SK(-)GAS viability under kanamycin – luminescence, BacTiterGlo, confirmation, counter-screen for streptokinase expression inhibitor project, dose response (AID 1900); format: functional, organism-based
Streptokinase A = target: T1, Streptokinase A (Streptococcus pyogenes serotype M1, UniProt P10520); experiment: viability-normalized secreted streptokinase activity reduction – plasminogen activation absorbance, OD405, dose response (AID 1914); format: functional, Streptococcus pyogenes M1 GAS;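 also: secreted streptokinase activity via plasminogen activation per viability signal from cell pellet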
T1 sequence (P10520 whole entry): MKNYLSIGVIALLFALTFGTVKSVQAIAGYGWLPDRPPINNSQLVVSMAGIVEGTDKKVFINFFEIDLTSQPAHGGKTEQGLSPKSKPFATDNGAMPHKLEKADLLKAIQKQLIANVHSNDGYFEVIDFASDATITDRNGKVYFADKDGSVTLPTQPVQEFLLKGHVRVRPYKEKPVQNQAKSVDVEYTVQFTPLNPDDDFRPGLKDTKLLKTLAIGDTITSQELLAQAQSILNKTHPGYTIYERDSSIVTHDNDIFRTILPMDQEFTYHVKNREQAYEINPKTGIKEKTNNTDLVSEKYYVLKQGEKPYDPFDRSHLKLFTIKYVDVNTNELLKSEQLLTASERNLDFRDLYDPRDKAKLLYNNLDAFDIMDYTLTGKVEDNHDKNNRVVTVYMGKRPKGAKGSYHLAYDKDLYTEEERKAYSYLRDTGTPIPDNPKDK

Streptococcus = experiment: GAS UMAA2166 growth inhibition – luminescence, BacTiterGlo, counter-screen for streptokinase expression inhibitor project, dose response (AID 1915); format: functional, organism-based;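 also: potency for reduction of bacterial viability or growth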
Cytochrome P450 2C19 = Cytochrome P450 2C19 (Homo sapiens, UniProt P33261); experiment: Cytochrome panel assay with activity outcomes. Panel member name: p450-cyp2c19 Compounds with AC50 equal or less than 10 uM are considered active; format: functional
Cytochrome P450 2C9 = Cytochrome P450 2C9 (Homo sapiens, UniProt P11712)
[2] = target: T2, Corticotropin-releasing factor receptor 2/Corticotropin-releasing factor-binding protein (Homo sapiens, UniProt P24387+Q13324); experiment: activators of CRF receptor 2 with binding protein – uHTS hits, confirmation (AID 602473); format: functional; conditions: read-out: EC50_Mean
T2 sequence (Q13324 whole entry): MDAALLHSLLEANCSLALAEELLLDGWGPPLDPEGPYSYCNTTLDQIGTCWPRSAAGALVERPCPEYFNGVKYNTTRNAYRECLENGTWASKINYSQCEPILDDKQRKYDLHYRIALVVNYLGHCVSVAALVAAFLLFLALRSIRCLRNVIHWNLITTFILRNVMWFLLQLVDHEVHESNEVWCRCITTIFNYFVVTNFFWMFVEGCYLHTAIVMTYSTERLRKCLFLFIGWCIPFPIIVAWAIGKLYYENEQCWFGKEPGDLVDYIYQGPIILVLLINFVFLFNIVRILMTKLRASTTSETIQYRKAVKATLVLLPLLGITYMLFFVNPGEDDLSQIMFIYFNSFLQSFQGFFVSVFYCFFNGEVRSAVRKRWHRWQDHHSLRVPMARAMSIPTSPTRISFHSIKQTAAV
T2 sequence (P24387 whole entry): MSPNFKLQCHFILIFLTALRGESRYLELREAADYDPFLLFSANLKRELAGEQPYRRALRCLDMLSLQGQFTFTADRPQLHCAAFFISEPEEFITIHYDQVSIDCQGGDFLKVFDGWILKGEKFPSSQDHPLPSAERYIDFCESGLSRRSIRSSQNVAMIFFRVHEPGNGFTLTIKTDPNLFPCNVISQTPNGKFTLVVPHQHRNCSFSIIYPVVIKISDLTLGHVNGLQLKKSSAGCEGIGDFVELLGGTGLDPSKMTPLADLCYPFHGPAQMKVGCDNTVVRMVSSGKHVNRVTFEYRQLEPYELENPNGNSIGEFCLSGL

[3] = Trypanosoma cruzi growth suppression in host cells – NIH3T3 host cells, beta-gal luminescence, confirmation (AID 2044); format: functional, cell-based;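 also: intracellular parasites grown in NIH/3T3 mouse fibroblasts as host cells; luminescent beta-galactosidase reporter signal from transgenic T. cruzi replicating inside host cells; inhibitors lower the luminescence signal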
[4] = NIH3T3 cell viability loss – ATP luminescence, mouse fibroblasts, counter-screen, dose response (AID 2010); format: functional, cell-based;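 also: cells exposed to compound for about 90 hours before reading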

Cytochrome P450 3A4, sequence (P08684 whole entry): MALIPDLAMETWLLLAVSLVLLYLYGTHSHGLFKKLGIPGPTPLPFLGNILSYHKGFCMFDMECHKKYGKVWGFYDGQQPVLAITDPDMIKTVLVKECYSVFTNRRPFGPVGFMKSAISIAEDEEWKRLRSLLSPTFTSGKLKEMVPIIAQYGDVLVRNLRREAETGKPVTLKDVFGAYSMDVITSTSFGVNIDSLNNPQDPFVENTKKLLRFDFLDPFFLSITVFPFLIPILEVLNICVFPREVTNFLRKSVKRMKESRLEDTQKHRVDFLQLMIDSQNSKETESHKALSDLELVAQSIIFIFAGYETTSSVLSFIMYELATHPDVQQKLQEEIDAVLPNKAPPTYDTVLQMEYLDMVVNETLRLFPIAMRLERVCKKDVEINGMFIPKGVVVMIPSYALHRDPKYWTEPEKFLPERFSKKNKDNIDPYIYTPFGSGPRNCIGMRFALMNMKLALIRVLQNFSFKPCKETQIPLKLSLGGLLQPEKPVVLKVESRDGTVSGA
Cytochrome P450 2D6, sequence (P10635 whole entry): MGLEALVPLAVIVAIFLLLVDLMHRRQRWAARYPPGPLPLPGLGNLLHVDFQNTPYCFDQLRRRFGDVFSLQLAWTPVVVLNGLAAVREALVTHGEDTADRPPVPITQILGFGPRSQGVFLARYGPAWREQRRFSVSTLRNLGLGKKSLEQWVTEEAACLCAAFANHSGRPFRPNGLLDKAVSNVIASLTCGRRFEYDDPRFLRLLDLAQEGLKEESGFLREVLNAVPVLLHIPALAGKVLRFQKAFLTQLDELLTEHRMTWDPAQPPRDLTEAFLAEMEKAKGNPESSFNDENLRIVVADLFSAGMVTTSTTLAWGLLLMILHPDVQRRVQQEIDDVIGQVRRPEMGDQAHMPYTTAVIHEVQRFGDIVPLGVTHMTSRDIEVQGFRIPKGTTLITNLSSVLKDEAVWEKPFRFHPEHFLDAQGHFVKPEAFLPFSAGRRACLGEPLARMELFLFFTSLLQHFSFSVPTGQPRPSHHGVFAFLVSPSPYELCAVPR
Cytochrome P450 2C19, sequence (P33261 whole entry): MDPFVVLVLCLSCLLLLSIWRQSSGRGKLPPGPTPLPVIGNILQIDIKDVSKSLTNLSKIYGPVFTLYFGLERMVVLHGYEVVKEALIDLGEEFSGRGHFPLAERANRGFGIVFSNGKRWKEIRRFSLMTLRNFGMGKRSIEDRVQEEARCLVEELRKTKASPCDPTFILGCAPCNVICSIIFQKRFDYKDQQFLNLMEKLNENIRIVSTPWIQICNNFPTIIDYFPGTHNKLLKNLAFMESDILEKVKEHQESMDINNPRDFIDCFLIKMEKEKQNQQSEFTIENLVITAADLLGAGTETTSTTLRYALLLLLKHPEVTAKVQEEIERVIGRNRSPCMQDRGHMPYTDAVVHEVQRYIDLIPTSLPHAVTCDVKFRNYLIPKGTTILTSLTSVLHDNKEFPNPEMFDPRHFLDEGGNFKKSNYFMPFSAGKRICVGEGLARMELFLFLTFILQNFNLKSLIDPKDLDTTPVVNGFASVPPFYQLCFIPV
Cytochrome P450 2C9, sequence (P11712 whole entry): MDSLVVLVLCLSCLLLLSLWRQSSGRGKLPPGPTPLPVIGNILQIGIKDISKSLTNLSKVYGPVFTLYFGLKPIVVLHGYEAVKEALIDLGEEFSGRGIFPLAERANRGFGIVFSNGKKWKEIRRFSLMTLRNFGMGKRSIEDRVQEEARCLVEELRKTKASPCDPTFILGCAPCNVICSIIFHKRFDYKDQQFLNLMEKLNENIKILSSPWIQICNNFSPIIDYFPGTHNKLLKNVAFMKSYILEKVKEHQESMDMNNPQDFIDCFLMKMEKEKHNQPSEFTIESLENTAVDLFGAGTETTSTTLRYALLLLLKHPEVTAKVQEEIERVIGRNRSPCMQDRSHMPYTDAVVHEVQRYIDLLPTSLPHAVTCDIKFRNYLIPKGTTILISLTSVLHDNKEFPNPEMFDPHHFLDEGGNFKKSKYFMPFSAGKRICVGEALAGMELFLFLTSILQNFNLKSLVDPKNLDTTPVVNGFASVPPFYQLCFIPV

| Compound | AC50 (Cytochrome P450 3A4) | AC50 (Cytochrome P450 2D6) | further results |
| --- | --- | --- | --- |
| CCC1=NN(C(=O)CCc2ccccc2)C(O)(C(F)(F)F)C1 (stereo not given) | 15.8 µM (inconclusive) | – | – |
| CN1[C@@H]2CC[C@H]1C[C@@H](OC(=O)c1c[nH]c3ccccc13)C2 [TROPISETRON] | – | 31.6 µM (inconclusive) | – |
| CCC1(C)Cc2c(sc3nc(SC)nc(S)c23)CO1 (stereo not given) | – | – | EC50 [1]: 1.84 µM (active); EC50 (Streptokinase A): > 150 µM (not active); EC50 (Streptococcus): > 150 µM (not active) |
| COc1ccc(-c2nnc3n2N=C(C)CS3)cc1 | – | – | AC50 (Cytochrome P450 2C19; read-out: AC50): 25.1 µM (inconclusive); AC50 (Cytochrome P450 2C9): 20 µM (inconclusive) |
| CS(=O)(=O)Nc1cccc(-c2ccc3ncnc(Nc4ccc(F)cc4)c3c2)c1 | – | 39.8 µM (inconclusive) | – |
| COc1ccccc1C(=O)NCCn1cc(SCC(=O)Nc2nnc(C)s2)c2ccccc21 | – | 28.2 µM (inconclusive) | – |
| OCCNc1nc(SCc2ccccc2)nc2sc3c(c12)CCC3 | – | 25.1 µM (inconclusive) | – |
| CC12CS(=O)(=O)CC1SC(=S)N2c1ccccn1 (stereo not given) | 17.8 µM (inconclusive) | – | – |
| CC(C)(C)CC(=O)NC(=S)Nc1ccccc1C(F)(F)F | 22.4 µM (inconclusive) | – | – |
| CCOc1ccc(CNC(=O)C2CC(=O)N(C3CCCC3)C2)cc1OC (stereo not given) | 25.1 µM (inconclusive) | – | AC50 (Cytochrome P450 2C19; read-out: AC50): 39.8 µM (inconclusive) |
| Cc1ccnn2cc3c(=O)n(C)c(=O)n(C)c3c12 | – | 20 µM (inconclusive) | AC50 (Cytochrome P450 2C9): 11.2 µM (inconclusive) |
| O=c1c(-c2ccc(F)cc2)nc2cnc(N3CCNCC3)nc2n1-c1ccccc1 | 25.1 µM (inconclusive) | – | AC50 (Cytochrome P450 2C19): inconclusive |
| COc1ccc([C@@H](Nc2ccccn2)c2cc(C(C)(C)C)cc(C(C)(C)C)c2O)cc1 | 2 µM (inconclusive) | – | – |
| COc1ccc(-c2nc3cnc(OCc4ccccc4)nc3n(CCC#N)c2=O)cc1 | 10 µM (inconclusive) | – | – |
| COC(=O)c1ccc(C(NC(=O)c2ccco2)[C@]2(C)C[C@H]2C2CCCCC2)cc1 (stereo not given in full) | – | 12.6 µM (inconclusive) | – |
| Cc1ccc2c(Cl)cc(Cl)c(OCC(=O)NC(C)(C)C)c2n1 | – | – | EC50 [1]: 12.7 µM (active); EC50 (Streptokinase A): > 150 µM (not active); EC50 (Streptococcus): > 150 µM (not active) |
| Cc1ccc2[nH]c(C(=O)N/N=C/c3ccccc3C(=O)O)c(-c3ccccc3)c2c1 | – | – | EC50 [2]: 5.26 µM (active) |
| Nc1nc(-c2cccs2)cs1 | 3.98 µM (inconclusive) and 25.1 µM (inconclusive) | – | AC50 (Cytochrome P450 2C19; read-out: AC50): 3.98 µM (inconclusive) and 39.8 µM (inconclusive) |
| O=C(Nc1cccc(-c2cnc3ccccc3n2)c1)c1ccc(Cl)cc1 | 3.55 µM (inconclusive) | – | AC50 (Cytochrome P450 2C9): 1.78 µM (inconclusive) |
| CN(C)CCn1c(=O)n(Cc2ccco2)c(=O)c2c3c(sc21)CCCCC3 | 12.6 µM (inconclusive) | – | EC50 [3]: 0.196 µM (active); EC50 [4]: > 60 µM (not active) |
| CCn1c(SCC(=O)NC2CCCCC2)nc2c(c1=O)SC(C)C2 (stereo not given) | – | 1.58 µM (inconclusive) | – |
| CC(NC(=O)C1(C)CC1(Br)Br)C(C)(C)C (stereo not given) | 14.1 µM (inconclusive) | – | – |
| COc1cccc(C(C(=O)Nc2ccc(F)cc2)N(C(=O)Cn2nnc3ccccc32)C2CC2)c1 (stereo not given) | – | 25.1 µM (inconclusive) | – |
| CCCC(c1cc(C(C)(C)C)c(O)cc1C)c1cc(C(C)(C)C)c(O)cc1C | – | 3.98 µM (inconclusive) | AC50 (Cytochrome P450 2C19; read-out: AC50): 6.31 µM (inconclusive); AC50 (Cytochrome P450 2C9): 3.16 µM (inconclusive) |
| CC(C)OCCCN1C(=O)c2ccccc2C1C(=O)NC1CCCCC1 (stereo not given) | – | – | AC50 (Cytochrome P450 2C19; read-out: AC50): 35.5 µM (inconclusive); AC50 (Cytochrome P450 2C9): 7.08 µM (inconclusive) |

— ChEMBL document CHEMBL1201862, “PubChem BioAssay data set” (2004)
